Results taken from US10654895B2, “Polypeptide, DNA molecule encoding the polypeptide, vector, preparation method and use” (WUHAN MORE BIOTECHNOLOGY CO., LTD., priority 2013, dated 2020).
Values joined by “and” are separate entries in the source; they are usually repeats but may differ in a detail not shown here. Identical values can stand only once. Like-named read-outs stand apart in the source and are kept apart here. No end group written: not given here.

Legend:
[1] = tested on: S. pneumoniae
[2] = tested on: Bacteroides fragilis; test: Bacteriostasis experiment on anaerobic bacterium, 96-well plate MIC; assay type: cell-based
[3] = tested on: methicillin-sensitive coagulase-negative staphylococci (MSSCNS)
[4] = tested on: Clostridium tetani; assay type: cell-based
[5] = tested on: E. faecalis
[6] = tested on: Citrobacter
[7] = tested on: Staphylococcus aureus
[8] = tested on: methicillin-resistant coagulase-negative staphylococci (MRSCNS)
[9] = tested on: Streptococcus hemolyticus / S. pyogenes (β-hemolytic streptococcus); conditions: for Minimum inhibitory concentration MIC: test by the third party
[10] = tested on: Clostridium perfringens; assay type: cell-based
[11] = tested on: Neisseria meningitidis; conditions: N. meningitidis
[12] = tested on: Haemophilus influenza; conditions: H. influenzae
[13] = tested on: Acinetobacter baumannii; conditions: A. baumannii (clinically isolated strain, 2 strains in Table 3)
[14] = tested on: K. oxytoca
[15] = tested on: Bordetella pertussis; conditions: B. pertussis
[16] = tested on: S. agalactiae
[17] = tested on: Serratia fonticola; conditions: S. fonticola
[18] = tested on: Methicillin-resistant Staphylococcus aureus (MRSA)
[19] = tested on: M. tuberculosis; test: MIC test by the third party; assay type: cell-based, Mycobacterium tuberculosis
[20] = tested on: Pseudomonas aeruginosa
[21] = tested on: Escherichia coli
[22] = tested on: Corynebacterium acnes; conditions: C. acnes
[23] = tested on: E. cloacae
[24] = tested on: Corynebacterium diphtheriae; conditions: C. diphtheriae
[25] = tested on: Enterococcus
[26] = tested on: Shigella dysentery (dysentery bacilli)
[27] = tested on: Klebsiella pneumoniae; conditions: K. pneumoniae
[28] = tested on: Proteusbacillus vulgaris
[29] = tested on: Neisseria gonorrhoeae; conditions: N. gonorrhoeae
[30] = tested on: Salmonella typhimurium
[31] = tested on: E. faecium

FIRIARLLRIF [Ctryamp, FIRIARLLRIF]
Minimum inhibitory concentration MIC [1]: 3.13 µg/mL
Minimum inhibitory concentration MIC [2]: 12.5 µg/mL
Minimum inhibitory concentration MIC ([3]; MSSCNS, 5 strains, test by the third party): 4 µg/mL
MIC ([3]; methicillin-sensitive coagulase-negative staphylococci): 3.13 to 12.5 µg/mL
Minimum inhibitory concentration MIC [4]: 25 µg/mL
Minimum inhibitory concentration MIC [5]: 50 µg/mL
Minimum inhibitory concentration MIC [6]: 12.5 µg/mL
Minimum inhibitory concentration MIC ([7]; S. aureus ATCC 29213, test by the third party): 8 µg/mL
Minimum inhibitory concentration MIC ([7]; S. aureus clinically isolated strain, 17 strains): 1.63 to 6.25 µg/mL
Minimum inhibitory concentration MIC ([7]; S. aureus standard strain ATCC25923): 6.25 µg/mL
inhibition rate ([7]; at 6.25 μg/mL, Staphylococcus aureus CCTCCAB94004): 100%
Minimum inhibitory concentration MIC ([7]; standard Staphylococcus aureus (Table 2)): 6.25 µg/mL
Minimum inhibitory concentration MIC ([8]; 11 strains, test by the third party): 4 µg/mL
Minimum inhibitory concentration ([8]; stated jointly with MRSA, 4-8 = test results from the third party): 3.13 to 12.5 µg/mL and 4 to 8 µg/mL
Minimum inhibitory concentration MIC ([9]; Erythromycin-resistant S. pyogenes, 11 strains): 8 to 16 µg/mL
Minimum inhibitory concentration MIC ([9]; Erythromycin-sensitive S. pyogenes, 4 strains): 16 µg/mL
Minimum inhibitory concentration MIC ([9]; Streptococcus ATCC 19615 (standard strain)): 8 µg/mL
MIC ([9]; Streptococcus hemolyticus): 8 to 16 µg/mL
Minimum inhibitory concentration MIC [10]: 25 µg/mL
Minimum inhibitory concentration MIC [11]: 6.25 µg/mL
Minimum inhibitory concentration MIC [12]: 3.13 µg/mL
Minimum inhibitory concentration MIC [13]: 12.5 µg/mL
Minimum inhibitory concentration MIC [14]: 12.5 µg/mL
Minimum inhibitory concentration MIC [15]: 3.13 µg/mL
Minimum inhibitory concentration MIC [16]: 25 µg/mL
Minimum inhibitory concentration MIC [17]: 12.5 µg/mL
Minimum inhibitory concentration MIC ([18]; MRSA, 5 strains): 3.13 to 12.5 µg/mL
Minimum inhibitory concentration MIC ([18]; MRSA, 11 strains, test by the third party): 4 to 8 µg/mL
Minimum inhibitory concentration MIC ([18]; Methicillin-resistant Staphylococcus aureus (Table 8)): 6.25 µg/mL
Minimum inhibitory concentration MIC [19]: 25 µg/mL
Minimum inhibitory concentration MIC ([20]; P. aeruginosa ATCC27853 (standard strain), test by the third party): 8 µg/mL
Minimum inhibitory concentration MIC ([20]; P. aeruginosa IPM-R strain, 8 strains, test by the third party): 8 to 16 µg/mL
Minimum inhibitory concentration MIC ([20]; P. aeruginosa IPM-S strain, 4 strains, test by the third party): 8 to 16 µg/mL
Minimum inhibitory concentration MIC ([20]; Pseudomonas aeruginosa, strain not specified (Table 8)): 8 µg/mL
Minimum inhibitory concentration MIC ([21]; ATCC25922 (non-ESBLs-producing), test by the third party): 4 µg/mL
Minimum inhibitory concentration MIC ([21]; ATCC35218 (ESBLs-producing), test by the third party): 4 µg/mL
Minimum inhibitory concentration MIC ([21]; E. coli ATCC25922 (standard strain)): 6.25 µg/mL
Minimum inhibitory concentration MIC ([21]; E. coli clinically isolated strain, 8 strains): 6.25 to 12.5 µg/mL
Minimum inhibitory concentration MIC ([21]; ESBLs-producing E. coli, 10 strains, test by the third party): 4 to 8 µg/mL
Minimum inhibitory concentration MIC ([21]; Escherichia coli, strain not specified (Table 8)): 6.25 to 12.5 µg/mL and 6.25 µg/mL
inhibition rate ([21]; at 6.25 μg/mL, Escherichia coli CCTCCAB94012): 100%
Minimum inhibitory concentration MIC ([21]; non-ESBLs-producing E. coli, 4 strains, test by the third party): 4 to 8 µg/mL
Minimum inhibitory concentration MIC ([21]; standard Escherichia coli (Table 2)): 12.5 µg/mL
Minimum inhibitory concentration MIC [22]: 3.13 µg/mL
Minimum inhibitory concentration MIC [23]: 12.5 µg/mL
Minimum inhibitory concentration MIC [24]: 3.13 µg/mL
MIC [25]: 6.25 µg/mL
Minimum inhibitory concentration MIC [26]: 6.25 µg/mL and 6.5 µg/mL
Minimum inhibitory concentration MIC [27]: 25 µg/mL
MIC [28]: 6.25 µg/mL
Minimum inhibitory concentration MIC [29]: 6.25 µg/mL
Minimum inhibitory concentration MIC [30]: 12.5 µg/mL
Minimum inhibitory concentration MIC [31]: 25 µg/mL
